Assay results: patent US8392127B2, “Methods and gene expression signature for assessing growth factor signaling pathway regulation status” (Merck Sharp & Dohme Corp., priority 2008, dated 2013)

What was measured:
growth factor signature = test: Signature inhibition in the connectivity map dataset; format: cell-based; conditions: for Enrichment / Rank in terms of significance of signature inhibition: Growth Factor Signaling Pathway signature, connectivity map dataset; for Rank in terms of significance of signature inhibition: rank among all compounds; for rank in terms of significance of growth factor signature inhibition: among all compounds in the connectivity map dataset
From the text: (§1) To further validate the growth factor signature, we leveraged signatures of drug response from the connectivity map dataset (Lamb et al., 2006, Science 313:1929-1935). This dataset comprises mRNA expression data for 164 distinct small molecules, representing 453 individual compound treatment experiments. These small molecule inhibitors include the PI3K inhibitors wortmannin and LY-294002 and the mTOR inhibitor sirolimus. We surmised that if the growth factor signature truly represents activation of the PI3K pathway, these compounds should have an inhibitory effect on the signature. […] In contrast, other perturbagens in the connectivity map dataset either have no effect, a less significant inhibitory effect, or an activating effect on the growth factor signaling signature. […] For example, while LY-294002 was the top ranked compound in terms of significance of proliferation signature inhibition, sirolimus was ranked fifth, and wortmannin was ranked 23rd (Table 12).

proliferation signature = test: as above; format: cell-based; conditions: for Enrichment / Rank in terms of significance of signature inhibition: Proliferation signature, connectivity map dataset; for Rank in terms of significance of signature inhibition: rank among all compounds
From the text: as §1

MYC signature = test: as above; format: cell-based; conditions: c-MYC signature; for Rank in terms of significance of signature inhibition: rank among all compounds
ERBB3 = test: mRNA expression of growth factor receptors after growth factor treatment (microarray); format: cell-based, human; conditions: MCF7 and HT29 cells; 100 ng/ml (heregulin 30 ng/ml)
Protocol: (§2) FIG. 29. Negative feedback induced by growth factors. The data presented represents the effect of each growth factor on the mRNA expression of (A) EGFR, (B) ERBB3, (C) INSR, or (D) a recently published signature of aberrant PTEN activity. The Y-axes represent the log(10) ratio of expression relative to vehicle. […] The X-axes represent the time point after growth factor addition.
(§3) MCF-7 and HT-29 cell lines were seeded in 6-well plates to achieve 40-50% confluence at the time of growth factor addition. Cells were serum starved for 24 hours in 0.2% charcoal stripped serum, and growth factors were added at 100 ng/ml (EGF, IGF, insulin, b-FGF) or 30 ng/ml (heregulin). Concentrations of growth factors were chosen to give maximal activation of growth factor receptors as judged by receptor auto-phosphorylation. Activation of growth factor receptor pathways after growth factor addition was confirmed by Western analysis of phosphorylated MAPK and phosphorylated AKT in a separate plate of cells (data not shown). Cells were harvested at 30 minutes, 2 hours, 6 hours, 18 hours, and 24 hours after growth factor addition. DMSO (vehicle) treated cells were also harvested at each time point. RNA was prepared using RLT lysis reagent Qiagen spin columns according to manufacturer instructions.
(§4) For growth factor and AKT inhibitor treated cells, total RNA was isolated from cell lines and converted to fluorescently labeled cRNA that was hybridized to DNA oligonucleotide microarrays as described previously (Hughes et al., 2001, Nat. Biotechnol. 19:342-347; Marton et al., 1998, Nat. Med. 4:1293-1301). Briefly, 4 μg of total RNA from each treated sample was used to synthesize dsDNA through reverse transcription. cRNA was produced by in vitro transcription and labeled post-synthetically with Cy3 or Cy5. cRNA derived from growth factor or AKT inhibitor treated cells (experimental sample) was hybridized against cRNA derived from vehicle treated samples (reference sample). Two hybridizations were done with each cRNA sample pair using fluorescent dye reversal strategy. For growth factor treated cells, microarrays contained 23,880 probes representing genes or expressed sequence tags (GEO platform GPL2029). For AKT inhibitor treated cells, microarrays contained 23,658 probes representing genes or expressed sequence tags (GEO platform GPL3991). Probe sequences were chosen to maximize gene specificity and minimize the 3′-replication bias inherent in reverse transcription of mRNA. In addition, all microarrays contained approximately 2,000 control probes for quality control purposes. All probes on the microarrays were synthesized in situ with inkjet technology (Agilent Technologies, Palo Alto, Calif.; Hughes et al, 2001, Nat. Biotechnol. 19:342-347). After hybridization, arrays were scanned and fluorescence intensities for each probe were recorded. Ratios of transcript abundance (experimental to control) were obtained following normalization and correction of the array intensity data. Gene expression data was analyzed using Rosetta Resolver gene expression analysis software (version 7.0, Rosetta Biosoftware, Seattle, Wash.) and MATLAB (The MathWorks, Natick, Mass.).
(§5) As such, care should be taken when using mRNA levels of ERBB3 or INSR as a surrogate for activity of signaling through these receptors.

INSR = test: as above; format: cell-based, human; conditions: MCF7 and HT29 cells; 100 ng/ml (heregulin 30 ng/ml)
Protocol: as §2, §3, §4, §5

Row | ERBB3 mRNA expression (ERBB3) | INSR mRNA expression (INSR) | Molecule | Enrichment (growth factor signature) | Rank in terms of significance of signature inhibition (growth factor signature) | rank in terms of significance of growth factor signature inhibition (growth factor signature) | Enrichment (proliferation signature) | Rank in terms of significance of signature inhibition (proliferation signature) | Enrichment (MYC signature) | Rank in terms of significance of signature inhibition (MYC signature) | rank in terms of significance of proliferation signature inhibition (proliferation signature; among all compounds in the connectivity map dataset)
1 | significant down-regulation | significant down-regulation | IGF: growth factor added to cells at 100 ng/ml |  |  |  |  |  |  |  | 
2 | significant down-regulation | significant down-regulation | b-FGF: growth factor added to cells at 100 ng/ml |  |  |  |  |  |  |  | 
3 | significant down-regulation | significant down-regulation | insulin: growth factor added to cells at 100 ng/ml |  |  |  |  |  |  |  | 

More lines, now with the values behind:

Row | Molecule | ERBB3 mRNA expression (ERBB3) | INSR mRNA expression (INSR) | Enrichment (growth factor signature) | Rank in terms of significance of signature inhibition (growth factor signature) | rank in terms of significance of growth factor signature inhibition (growth factor signature) | Enrichment (proliferation signature) | Rank in terms of significance of signature inhibition (proliferation signature) | Enrichment (MYC signature) | Rank in terms of significance of signature inhibition (MYC signature) | rank in terms of significance of proliferation signature inhibition (proliferation signature; among all compounds in the connectivity map dataset)
4 | O=c1cc(N2CCOCC2)oc2c(-c3ccccc3)cccc12 [LY-294002] |  |  | −0.748 | 3 | 3 | −0.527 | 1 | −0.602 | 2 | 
5 | CO[C@H]1C[C@@H]2CC[C@@H](C)[C@@](O)(O2)C(=O)C(=O)N2CCCC[C@H]2C(=O)O[C@H]([C@H](C)C[C@@H]2CC[C@@H](O)[C@H](OC)C2)CC(=O)[C@H](C)/C=C(\C)[C@@H](O)[C@@H](OC)C(=O)[C@H](C)C[C@H](C)/C=C/C=C/C=C/1C [sirolimus] |  |  | −0.865 | 1 | 1 | −0.482 | 5 | −0.68 | 1 | 
6 | COC[C@H]1OC(=O)c2coc3c2[C@@]1(C)C1=C(C3=O)[C@@H]2CCC(=O)[C@@]2(C)C[C@H]1OC(C)=O [wortmannin] |  |  | −0.776 | 2 | 2 | −0.387 | 23 | −0.561 | 7 | 23
